Data taken from patent US6552080B1, “Fungicidal compounds having a fluorovinyl-or fluoropropenyl-oxyphenyloxime moiety and process for the preparation thereof” (Korea Research Institute of Chemical Technology, priority 1999, dated 2003).

test system: Pyricularia oryzae Carvara KA301; assay: not given; format: in vivo; details: 2 ppm

| SMILES | Fungicidal Activities RCV (C.V.) [%] |
| --- | --- |
| CON=C(C(=O)OC)c1ccccc1CON=C(C)c1cccc(OC(F)=C(c2ccccc2)C(F)(F)F)c1 [Compound 173] | 93 |

same assay, conditions: 50 ppm

| SMILES | Fungicidal Activities RCV (C.V.) [%] |
| --- | --- |
| CON=C(C(=O)OC)c1ccccc1CON=C(C)c1cccc(OC(F)=C(c2ccccc2)C(F)(F)F)c1 [Compound 173] | 97 |

same assay, conditions: Rice Blast; concentration 2 ppm

| SMILES | RCV (Fungicidal Activities, C.V.) [%] |
| --- | --- |
| CON=C(C(=O)OC)c1ccccc1CON=C(C)c1cccc(OC(F)=Cc2ccc(OC)cc2)c1 [Compound 72] | 100 |
| CON=C(C(=O)OC)c1ccccc1CON=Cc1cccc(OC(F)=C(c2ccc(F)cc2)C(F)(F)F)c1 [Compound 135] | 43 |
| CON=C(C(=O)OC)c1ccccc1CON=Cc1cccc(OC(F)=Cc2ccccc2)c1 [Compound 24] | 28 |

same assay, conditions: Rice Blast; concentration 10 ppm

| SMILES | RCV (Fungicidal Activities, C.V.) [%] |
| --- | --- |
| CON=C(C(=O)OC)c1ccccc1CON=Cc1cccc(OC(F)=Cc2ccccc2)c1 [Compound 24] | 88 |

same assay, conditions: Rice Blast; concentration 50 ppm

| SMILES | RCV (Fungicidal Activities, C.V.) [%] |
| --- | --- |
| CON=C(C(=O)OC)c1ccccc1CON=C(C)c1cccc(OC(F)=Cc2ccc(OC)cc2)c1 [Compound 72] | 98 |
| CON=C(C(=O)OC)c1ccccc1CON=Cc1cccc(OC(F)=C(c2ccc(F)cc2)C(F)(F)F)c1 [Compound 135] | 86 |
| CON=C(C(=O)OC)c1ccccc1CON=Cc1cccc(OC(F)=Cc2ccccc2)c1 [Compound 24] | 97 |

test system: Botrytis cinerae; assay: Fungicidal activity against Cucumber Gray Mold Rot (CGM) disease; format: in vivo; details: 50 ppm

| SMILES | Fungicidal Activities CGM (C.V.) [%] |
| --- | --- |
| CON=C(C(=O)OC)c1ccccc1CON=C(C)c1cccc(OC(F)=C(c2ccccc2)C(F)(F)F)c1 [Compound 173] | 25 |

same assay, conditions: Cucumber Gray Mold Rot; concentration 50 ppm

| SMILES | CGM (Fungicidal Activities, C.V.) [%] |
| --- | --- |
| CON=C(C(=O)OC)c1ccccc1CON=C(C)c1cccc(OC(F)=Cc2ccc(OC)cc2)c1 [Compound 72] | 0 |
| CON=C(C(=O)OC)c1ccccc1CON=Cc1cccc(OC(F)=C(c2ccc(F)cc2)C(F)(F)F)c1 [Compound 135] | 71 |
| CON=C(C(=O)OC)c1ccccc1CON=Cc1cccc(OC(F)=Cc2ccccc2)c1 [Compound 24] | 50 |

test system: Phytophthora infestans; assay: not given; format: in vivo; details: 50 ppm

| SMILES | Fungicidal Activities TLB (C.V.) [%] |
| --- | --- |
| CON=C(C(=O)OC)c1ccccc1CON=C(C)c1cccc(OC(F)=C(c2ccccc2)C(F)(F)F)c1 [Compound 173] | 20 |

same assay, conditions: Tomato Late Blight; concentration 2 ppm

| SMILES | TLB (Fungicidal Activities, C.V.) [%] |
| --- | --- |
| CON=C(C(=O)OC)c1ccccc1CON=C(C)c1cccc(OC(F)=Cc2ccc(OC)cc2)c1 [Compound 72] | 0 |

same assay, conditions: Tomato Late Blight; concentration 50 ppm

| SMILES | TLB (Fungicidal Activities, C.V.) [%] |
| --- | --- |
| CON=C(C(=O)OC)c1ccccc1CON=C(C)c1cccc(OC(F)=Cc2ccc(OC)cc2)c1 [Compound 72] | 66 |
| CON=C(C(=O)OC)c1ccccc1CON=Cc1cccc(OC(F)=C(c2ccc(F)cc2)C(F)(F)F)c1 [Compound 135] | 0 |
| CON=C(C(=O)OC)c1ccccc1CON=Cc1cccc(OC(F)=Cc2ccccc2)c1 [Compound 24] | 33 |

test system: Puccinia recondita; assay: Fungicidal activity against Wheat Leaf Rust (WLR) disease; format: in vivo; details: 2 ppm

| SMILES | Fungicidal Activities WLR (C.V.) [%] |
| --- | --- |
| CON=C(C(=O)OC)c1ccccc1CON=C(C)c1cccc(OC(F)=C(c2ccccc2)C(F)(F)F)c1 [Compound 173] | 99 |

same assay, conditions: 50 ppm

| SMILES | Fungicidal Activities WLR (C.V.) [%] |
| --- | --- |
| CON=C(C(=O)OC)c1ccccc1CON=C(C)c1cccc(OC(F)=C(c2ccccc2)C(F)(F)F)c1 [Compound 173] | 100 |

same assay, conditions: Wheat Leaf Rust; concentration 2 ppm

| SMILES | WLR (Fungicidal Activities, C.V.) [%] |
| --- | --- |
| CON=C(C(=O)OC)c1ccccc1CON=C(C)c1cccc(OC(F)=Cc2ccc(OC)cc2)c1 [Compound 72] | 98 |
| CON=C(C(=O)OC)c1ccccc1CON=Cc1cccc(OC(F)=C(c2ccc(F)cc2)C(F)(F)F)c1 [Compound 135] | 94 |
| CON=C(C(=O)OC)c1ccccc1CON=Cc1cccc(OC(F)=Cc2ccccc2)c1 [Compound 24] | 95 |

same assay, conditions: Wheat Leaf Rust; concentration 10 ppm

| SMILES | WLR (Fungicidal Activities, C.V.) [%] |
| --- | --- |
| CON=C(C(=O)OC)c1ccccc1CON=Cc1cccc(OC(F)=Cc2ccccc2)c1 [Compound 24] | 97 |

same assay, conditions: Wheat Leaf Rust; concentration 50 ppm

| SMILES | WLR (Fungicidal Activities, C.V.) [%] |
| --- | --- |
| CON=C(C(=O)OC)c1ccccc1CON=C(C)c1cccc(OC(F)=Cc2ccc(OC)cc2)c1 [Compound 72] | 100 |
| CON=C(C(=O)OC)c1ccccc1CON=Cc1cccc(OC(F)=C(c2ccc(F)cc2)C(F)(F)F)c1 [Compound 135] | 100 |
| CON=C(C(=O)OC)c1ccccc1CON=Cc1cccc(OC(F)=Cc2ccccc2)c1 [Compound 24] | 99 |

test system: Erysiphae graminis; assay: Fungicidal activity against Barley Powdery Mildew (BPM) disease; format: in vivo; details: 2 ppm

| SMILES | Fungicidal Activities BPM (C.V.) [%] |
| --- | --- |
| CON=C(C(=O)OC)c1ccccc1CON=C(C)c1cccc(OC(F)=C(c2ccccc2)C(F)(F)F)c1 [Compound 173] | 99 |

same assay, conditions: 50 ppm

| SMILES | Fungicidal Activities BPM (C.V.) [%] |
| --- | --- |
| CON=C(C(=O)OC)c1ccccc1CON=C(C)c1cccc(OC(F)=C(c2ccccc2)C(F)(F)F)c1 [Compound 173] | 100 |

same assay, conditions: Barley Powdery Mildew; concentration 2 ppm

| SMILES | BPM (Fungicidal Activities, C.V.) [%] |
| --- | --- |
| CON=C(C(=O)OC)c1ccccc1CON=C(C)c1cccc(OC(F)=Cc2ccc(OC)cc2)c1 [Compound 72] | 100 |
| CON=C(C(=O)OC)c1ccccc1CON=Cc1cccc(OC(F)=C(c2ccc(F)cc2)C(F)(F)F)c1 [Compound 135] | 93 |
| CON=C(C(=O)OC)c1ccccc1CON=Cc1cccc(OC(F)=Cc2ccccc2)c1 [Compound 24] | 95 |

same assay, conditions: Barley Powdery Mildew; concentration 10 ppm

| SMILES | BPM (Fungicidal Activities, C.V.) [%] |
| --- | --- |
| CON=C(C(=O)OC)c1ccccc1CON=Cc1cccc(OC(F)=Cc2ccccc2)c1 [Compound 24] | 100 |

same assay, conditions: Barley Powdery Mildew; concentration 50 ppm

| SMILES | BPM (Fungicidal Activities, C.V.) [%] |
| --- | --- |
| CON=C(C(=O)OC)c1ccccc1CON=C(C)c1cccc(OC(F)=Cc2ccc(OC)cc2)c1 [Compound 72] | 100 |
| CON=C(C(=O)OC)c1ccccc1CON=Cc1cccc(OC(F)=C(c2ccc(F)cc2)C(F)(F)F)c1 [Compound 135] | 100 |
| CON=C(C(=O)OC)c1ccccc1CON=Cc1cccc(OC(F)=Cc2ccccc2)c1 [Compound 24] | 100 |

test system: Rhizoctonia solani AG-1; assay: Fungicidal activity against Rice Sheath Blight (RSB) disease; details: 2 ppm

| SMILES | Fungicidal Activities RSB (C.V.) [%] |
| --- | --- |
| CON=C(C(=O)OC)c1ccccc1CON=C(C)c1cccc(OC(F)=C(c2ccccc2)C(F)(F)F)c1 [Compound 173] | 30 |

same assay, conditions: 50 ppm

| SMILES | Fungicidal Activities RSB (C.V.) [%] |
| --- | --- |
| CON=C(C(=O)OC)c1ccccc1CON=C(C)c1cccc(OC(F)=C(c2ccccc2)C(F)(F)F)c1 [Compound 173] | 100 |

same assay, conditions: Rice Sheath Blight; concentration 2 ppm

| SMILES | RSB (Fungicidal Activities, C.V.) [%] |
| --- | --- |
| CON=C(C(=O)OC)c1ccccc1CON=C(C)c1cccc(OC(F)=Cc2ccc(OC)cc2)c1 [Compound 72] | 25 |
| CON=C(C(=O)OC)c1ccccc1CON=Cc1cccc(OC(F)=C(c2ccc(F)cc2)C(F)(F)F)c1 [Compound 135] | 20 |
| CON=C(C(=O)OC)c1ccccc1CON=Cc1cccc(OC(F)=Cc2ccccc2)c1 [Compound 24] | 44 |

same assay, conditions: Rice Sheath Blight; concentration 10 ppm

| SMILES | RSB (Fungicidal Activities, C.V.) [%] |
| --- | --- |
| CON=C(C(=O)OC)c1ccccc1CON=Cc1cccc(OC(F)=Cc2ccccc2)c1 [Compound 24] | 72 |

same assay, conditions: Rice Sheath Blight; concentration 50 ppm

| SMILES | RSB (Fungicidal Activities, C.V.) [%] |
| --- | --- |
| CON=C(C(=O)OC)c1ccccc1CON=C(C)c1cccc(OC(F)=Cc2ccc(OC)cc2)c1 [Compound 72] | 65 |
| CON=C(C(=O)OC)c1ccccc1CON=Cc1cccc(OC(F)=C(c2ccc(F)cc2)C(F)(F)F)c1 [Compound 135] | 61 |
| CON=C(C(=O)OC)c1ccccc1CON=Cc1cccc(OC(F)=Cc2ccccc2)c1 [Compound 24] | 95 |
